# Species on record: Rattus norvegicus
# Experiment: Open TG-GATES - Regimen: Daily Repeat
# Format: toxicity, organism-based, Sprague-Dawley
# Set-up: regimen Daily Repeat, gender Male, age 6 weeks
# Conditions: in vivo, po, 120 mg/kg, route gavage, dose level Middle; for APTT / Bas / Eos / Fbg / Hb / Ht / Lym / MCH / MCHC / MCV / Mono / Neu / PT / Plat / RBC / Ret / WBC: tissue Blood; for KIDNEY_L / KIDNEY_R / KIDNEY_TOTAL: tissue Kidney; for LIVER: tissue Liver; for A/G / ALP / ALT / AST / BUN / CRE / Ca / Cl / DBIL / GLC / IP / K / LDH / Na / PL / RALB / TBIL / TC / TG / TP / gamma-GTP: tissue Plasma
structure (smiles),measurement,setting,value
COc1ccc(Cc2nccc3cc(OC)c(OC)cc23)cc1OC [PAPAVERINE],TERMINAL_BW,"72 h, time 3 day",245.2 g
same,APTT,"72 h, time 3 day",22.2 s
same,Bas,"72 h, time 3 day",0%
same,Eos,"72 h, time 3 day",1%
same,Fbg,"72 h, time 3 day",316.2 mg/dL
same,Hb,"72 h, time 3 day",13.6 g/dL
same,Ht,"72 h, time 3 day",40.6%
same,Lym,"72 h, time 3 day",77.8%
same,MCH,"72 h, time 3 day",20.8 pg
same,MCHC,"72 h, time 3 day",33.5%
same,MCV,"72 h, time 3 day",62.1 fL
same,Mono,"72 h, time 3 day",2.6%
same,Neu,"72 h, time 3 day",17.8%
same,PT,"72 h, time 3 day",15.3 s
same,Plat,"72 h, time 3 day",116.6 x10_4/uL
same,RBC,"72 h, time 3 day",654.2 x10_4/ul
same,Ret,"72 h, time 3 day",6.2%
same,WBC,"72 h, time 3 day",84.6 x10_2/uL
same,KIDNEY_L,"72 h, time 3 day",1 g
same,KIDNEY_R,"72 h, time 3 day",1 g
same,KIDNEY_TOTAL,"72 h, time 3 day",2 g
same,LIVER,"72 h, time 3 day",11.7 g
same,A/G,"72 h, time 3 day",1.2
same,ALP,"72 h, time 3 day",1731.2 IU/L
same,ALT,"72 h, time 3 day",43 IU/L
same,AST,"72 h, time 3 day",72 IU/L
same,BUN,"72 h, time 3 day",15.8 mg/dL
same,CRE,"72 h, time 3 day",0.2 mg/dL
same,Ca,"72 h, time 3 day",10.9 mg/dL
same,Cl,"72 h, time 3 day",106.8 meq/L
same,DBIL,"72 h, time 3 day",0 mg/dL
same,GLC,"72 h, time 3 day",195.8 mg/dL
same,IP,"72 h, time 3 day",7.3 mg/dL
same,K,"72 h, time 3 day",4.3 meq/L
same,LDH,"72 h, time 3 day",179.2 IU/L
same,Na,"72 h, time 3 day",142.6 meq/L
same,PL,"72 h, time 3 day",144 mg/dL
same,RALB,"72 h, time 3 day",3.1 g/dL
same,TBIL,"72 h, time 3 day",0.006 mg/dL
same,TC,"72 h, time 3 day",77.2 mg/dL
same,TG,"72 h, time 3 day",98.6 mg/dL
same,TP,"72 h, time 3 day",5.7 g/dL
same,gamma-GTP,"72 h, time 3 day",1.2 IU/L
same,TERMINAL_BW,"[…], time 7 day",287 g
same,TERMINAL_BW,"[…], time 14 day",331.7 g
same,TERMINAL_BW,"[…], time 28 day",380.1 g
same,APTT,"[…], time 7 day",21.9 s
same,Bas,"[…], time 7 day",0%
same,Eos,"[…], time 7 day",1%
same,Fbg,"[…], time 7 day",314.8 mg/dL
same,Hb,"[…], time 7 day",13.4 g/dL
same,Ht,"[…], time 7 day",39.9%
same,Lym,"[…], time 7 day",76.8%
same,MCH,"[…], time 7 day",21 pg
same,MCHC,"[…], time 7 day",33.6%
same,MCV,"[…], time 7 day",62.6 fL
same,Mono,"[…], time 7 day",2.8%
same,Neu,"[…], time 7 day",18.6%
same,PT,"[…], time 7 day",15 s
same,Plat,"[…], time 7 day",122.9 x10_4/uL
same,RBC,"[…], time 7 day",638.8 x10_4/ul
same,Ret,"[…], time 7 day",6.6%
same,WBC,"[…], time 7 day",106.6 x10_2/uL
same,APTT,"[…], time 14 day",22.2 s
same,Bas,"[…], time 14 day",0%
same,Eos,"[…], time 14 day",1%
same,Fbg,"[…], time 14 day",341.6 mg/dL
same,Hb,"[…], time 14 day",14.1 g/dL
same,Ht,"[…], time 14 day",42.1%
same,Lym,"[…], time 14 day",71.2%
same,MCH,"[…], time 14 day",20 pg
same,MCHC,"[…], time 14 day",33.6%
same,MCV,"[…], time 14 day",59.7 fL
same,Mono,"[…], time 14 day",3.4%
same,Neu,"[…], time 14 day",22.8%
same,PT,"[…], time 14 day",15.1 s
same,Plat,"[…], time 14 day",117.8 x10_4/uL
same,RBC,"[…], time 14 day",706.4 x10_4/ul
same,Ret,"[…], time 14 day",5.2%
same,WBC,"[…], time 14 day",121.3 x10_2/uL
same,APTT,"[…], time 28 day",23.2 s
same,Bas,"[…], time 28 day",0%
same,Eos,"[…], time 28 day",1%
same,Fbg,"[…], time 28 day",339.2 mg/dL
same,Hb,"[…], time 28 day",14.3 g/dL
same,Ht,"[…], time 28 day",43.4%
same,Lym,"[…], time 28 day",77.6%
same,MCH,"[…], time 28 day",18.5 pg
same,MCHC,"[…], time 28 day",33%
same,MCV,"[…], time 28 day",56.1 fL
same,Mono,"[…], time 28 day",2.8%
same,Neu,"[…], time 28 day",17%
same,PT,"[…], time 28 day",15.8 s
same,Plat,"[…], time 28 day",100.4 x10_4/uL
same,RBC,"[…], time 28 day",773 x10_4/ul
same,Ret,"[…], time 28 day",2.7%
same,WBC,"[…], time 28 day",122.5 x10_2/uL
same,KIDNEY_L,"[…], time 7 day",1.2 g
same,KIDNEY_R,"[…], time 7 day",1.2 g
same,KIDNEY_TOTAL,"[…], time 7 day",2.4 g
same,KIDNEY_L,"[…], time 14 day",1.3 g
same,KIDNEY_R,"[…], time 14 day",1.3 g
same,KIDNEY_TOTAL,"[…], time 14 day",2.6 g
same,KIDNEY_L,"[…], time 28 day",1.4 g
same,KIDNEY_R,"[…], time 28 day",1.4 g
same,KIDNEY_TOTAL,"[…], time 28 day",2.8 g
same,LIVER,"[…], time 7 day",13.8 g
same,LIVER,"[…], time 14 day",14.4 g
same,LIVER,"[…], time 28 day",15.7 g
same,A/G,"[…], time 7 day",1.2
same,ALP,"[…], time 7 day",1633.8 IU/L
same,ALT,"[…], time 7 day",45.4 IU/L
same,AST,"[…], time 7 day",68.8 IU/L
same,BUN,"[…], time 7 day",17.2 mg/dL
same,CRE,"[…], time 7 day",0.2 mg/dL
same,Ca,"[…], time 7 day",10.8 mg/dL
same,Cl,"[…], time 7 day",106 meq/L
same,DBIL,"[…], time 7 day",0 mg/dL
same,GLC,"[…], time 7 day",197.4 mg/dL
same,IP,"[…], time 7 day",7.2 mg/dL
same,K,"[…], time 7 day",4 meq/L
same,LDH,"[…], time 7 day",173.4 IU/L
same,Na,"[…], time 7 day",141.4 meq/L
same,PL,"[…], time 7 day",149 mg/dL
same,RALB,"[…], time 7 day",3.1 g/dL
same,TBIL,"[…], time 7 day",0 mg/dL
same,TC,"[…], time 7 day",73.4 mg/dL
same,TG,"[…], time 7 day",123.2 mg/dL
same,TP,"[…], time 7 day",5.6 g/dL
same,gamma-GTP,"[…], time 7 day",2.2 IU/L
same,A/G,"[…], time 14 day",1.1
same,ALP,"[…], time 14 day",1378.8 IU/L
same,ALT,"[…], time 14 day",48 IU/L
same,AST,"[…], time 14 day",75.4 IU/L
same,BUN,"[…], time 14 day",18.6 mg/dL
same,CRE,"[…], time 14 day",0.2 mg/dL
same,Ca,"[…], time 14 day",10.5 mg/dL
same,Cl,"[…], time 14 day",106.6 meq/L
same,DBIL,"[…], time 14 day",0 mg/dL
same,GLC,"[…], time 14 day",191 mg/dL
same,IP,"[…], time 14 day",7.2 mg/dL
same,K,"[…], time 14 day",4 meq/L
same,LDH,"[…], time 14 day",166 IU/L
same,Na,"[…], time 14 day",142.6 meq/L
same,PL,"[…], time 14 day",156 mg/dL
same,RALB,"[…], time 14 day",3.1 g/dL
same,TBIL,"[…], time 14 day",0.014 mg/dL
same,TC,"[…], time 14 day",81.8 mg/dL
same,TG,"[…], time 14 day",109.8 mg/dL
same,TP,"[…], time 14 day",5.8 g/dL
same,gamma-GTP,"[…], time 14 day",2.4 IU/L
same,A/G,"[…], time 28 day",1.1
same,ALP,"[…], time 28 day",1042.8 IU/L
same,ALT,"[…], time 28 day",40.4 IU/L
same,AST,"[…], time 28 day",66.4 IU/L
same,BUN,"[…], time 28 day",18.2 mg/dL
same,CRE,"[…], time 28 day",0.2 mg/dL
same,Ca,"[…], time 28 day",10.1 mg/dL
same,Cl,"[…], time 28 day",106.2 meq/L
same,DBIL,"[…], time 28 day",0 mg/dL
same,GLC,"[…], time 28 day",191.4 mg/dL
same,IP,"[…], time 28 day",6 mg/dL
same,K,"[…], time 28 day",3.9 meq/L
same,LDH,"[…], time 28 day",120 IU/L
same,Na,"[…], time 28 day",141.8 meq/L
same,PL,"[…], time 28 day",129.8 mg/dL
same,RALB,"[…], time 28 day",3.1 g/dL
same,TBIL,"[…], time 28 day",0.01 mg/dL
same,TC,"[…], time 28 day",65.2 mg/dL
same,TG,"[…], time 28 day",119.8 mg/dL
same,TP,"[…], time 28 day",5.9 g/dL
same,gamma-GTP,"[…], time 28 day",2 IU/L
